Test results published in ChEMBL document CHEMBL4406837, “Cyclin dependent kinase (CDK) inhibitors as anticancer drugs: Recent advances (2015-2019)” (Bioorg Med Chem Lett, 2019).

Tests used:
[1] = target: T1, Cyclin-dependent kinase 2 (Homo sapiens, UniProt P24941); experiment: Binding affinity to CDK2 (unknown origin) assessed as inactivation constant
[2] = target: T1, Cyclin-dependent kinase 2; experiment: Binding affinity to CDK2 (unknown origin) assessed as association rate constant
[3] = target: T1, Cyclin-dependent kinase 2; experiment: Binding affinity to CDK2 (unknown origin) assessed as dissociation rate constant
CDK9/cyclin T1 [4] = target: T2, CDK9/cyclin T1 (Homo sapiens, UniProt P50750); experiment: Competitive irreversible inhibition of CDK9/cyclin T (unknown origin) in presence of Km ATP; assay type: protein-complex assay
T2 sequence (O60563 whole entry): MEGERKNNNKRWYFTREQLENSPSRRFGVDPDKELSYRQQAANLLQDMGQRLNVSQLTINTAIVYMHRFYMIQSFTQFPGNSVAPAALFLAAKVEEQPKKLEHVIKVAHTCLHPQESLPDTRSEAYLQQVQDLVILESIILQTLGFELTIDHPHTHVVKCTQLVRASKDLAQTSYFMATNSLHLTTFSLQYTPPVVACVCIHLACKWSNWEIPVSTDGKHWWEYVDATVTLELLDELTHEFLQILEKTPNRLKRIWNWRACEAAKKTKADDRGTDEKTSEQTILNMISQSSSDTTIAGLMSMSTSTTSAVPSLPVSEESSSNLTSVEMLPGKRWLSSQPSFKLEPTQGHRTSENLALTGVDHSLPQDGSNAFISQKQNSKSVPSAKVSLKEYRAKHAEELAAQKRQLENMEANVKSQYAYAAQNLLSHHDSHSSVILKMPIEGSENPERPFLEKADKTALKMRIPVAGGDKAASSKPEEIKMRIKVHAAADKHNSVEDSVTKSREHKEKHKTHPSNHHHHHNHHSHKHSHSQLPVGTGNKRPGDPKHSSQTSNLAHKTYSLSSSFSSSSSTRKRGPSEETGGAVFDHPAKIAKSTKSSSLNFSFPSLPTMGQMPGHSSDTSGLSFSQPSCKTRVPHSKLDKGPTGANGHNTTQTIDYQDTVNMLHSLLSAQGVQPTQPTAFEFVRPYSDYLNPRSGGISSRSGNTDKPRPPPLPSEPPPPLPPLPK
T2 sequence (P50750 whole entry): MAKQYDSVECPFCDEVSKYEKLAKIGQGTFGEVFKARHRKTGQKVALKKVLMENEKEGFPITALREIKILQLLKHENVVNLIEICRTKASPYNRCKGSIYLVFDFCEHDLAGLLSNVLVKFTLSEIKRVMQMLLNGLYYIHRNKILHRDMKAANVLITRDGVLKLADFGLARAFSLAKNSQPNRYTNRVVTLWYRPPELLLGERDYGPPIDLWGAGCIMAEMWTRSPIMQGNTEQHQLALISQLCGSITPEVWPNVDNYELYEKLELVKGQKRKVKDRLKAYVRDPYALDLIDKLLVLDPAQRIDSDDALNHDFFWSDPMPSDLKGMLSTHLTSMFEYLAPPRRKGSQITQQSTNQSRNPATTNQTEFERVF

[5] = target: T3, CDK7/Cyclin H/MNAT1 (Homo sapiens) (UniProt P51946+P50613+P51948); experiment: Ratio of Ki CDK7/cyclinH/MAT1 (unknown origin) to Kinact CDK7/cyclinH/MAT1 (unknown origin) assessed as inactivation constant; assay type: protein-complex assay
CDK7/Cyclin H/MNAT1 [6] = target: T4, CDK7/Cyclin H/MNAT1 (Homo sapiens, UniProt P50613); experiment: Competitive irreversible inhibition of CDK7/cyclinH/MAT1 (unknown origin) using 5-FAM YSPTSPSYSPTSPSYSPTSPSKKKK as substrate in presence of Km ATP; assay type: protein-complex assay
T4 sequence (P51946 whole entry): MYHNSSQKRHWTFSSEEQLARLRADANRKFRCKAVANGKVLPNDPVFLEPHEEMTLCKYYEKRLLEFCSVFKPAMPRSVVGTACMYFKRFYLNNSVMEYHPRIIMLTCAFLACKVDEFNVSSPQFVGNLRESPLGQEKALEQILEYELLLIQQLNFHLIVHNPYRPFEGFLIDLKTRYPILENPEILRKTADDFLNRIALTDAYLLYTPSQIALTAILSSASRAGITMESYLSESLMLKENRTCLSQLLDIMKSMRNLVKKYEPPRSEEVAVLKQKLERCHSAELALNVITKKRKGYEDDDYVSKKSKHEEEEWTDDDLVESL
T4 sequence (P50613 whole entry): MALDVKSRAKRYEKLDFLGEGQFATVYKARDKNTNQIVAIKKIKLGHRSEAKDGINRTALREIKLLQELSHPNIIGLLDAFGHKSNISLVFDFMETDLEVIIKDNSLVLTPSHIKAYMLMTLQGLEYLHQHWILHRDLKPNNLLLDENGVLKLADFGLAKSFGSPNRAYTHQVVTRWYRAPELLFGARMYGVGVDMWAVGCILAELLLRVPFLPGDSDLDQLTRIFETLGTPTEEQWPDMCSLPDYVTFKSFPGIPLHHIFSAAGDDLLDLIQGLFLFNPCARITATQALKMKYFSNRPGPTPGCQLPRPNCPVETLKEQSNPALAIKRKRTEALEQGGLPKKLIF
T4 sequence (P51948 whole entry, further chain): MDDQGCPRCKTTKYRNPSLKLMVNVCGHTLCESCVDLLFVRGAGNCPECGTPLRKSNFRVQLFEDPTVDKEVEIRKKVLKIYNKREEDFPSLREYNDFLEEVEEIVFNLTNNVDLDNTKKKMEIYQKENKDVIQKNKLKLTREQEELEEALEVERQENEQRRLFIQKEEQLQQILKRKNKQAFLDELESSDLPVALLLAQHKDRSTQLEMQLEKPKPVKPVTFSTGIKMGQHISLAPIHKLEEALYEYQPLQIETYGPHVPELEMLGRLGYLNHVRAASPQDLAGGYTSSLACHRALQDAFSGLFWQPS

CDK7/Cyclin H/MNAT1 [7] = target: T4, CDK7/Cyclin H/MNAT1; experiment: Competitive irreversible inhibition of CDK7/cyclinH/MAT1 (unknown origin) using 5-FAM YSPTSPSYSPTSPSYSPTSPSKKKK as substrate; assay type: protein-complex assay
[8] = Clearance in mouse; assay type: ADME, organism-based; conditions: in vivo
CDK7/Cyclin H/MNAT1 [9] = target: T4, CDK7/Cyclin H/MNAT1; experiment: Competitive irreversible inhibition of CDK7/cyclinH/MAT1 (unknown origin) using 5-FAM YSPTSPSYSPTSPSYSPTSPSKKKK as substrate in presence of 2 mM ATP; assay type: protein-complex assay
[10] = target: T3, CDK7/Cyclin H/MNAT1 (Homo sapiens); experiment: Competitive irreversible inhibition of CDK7/cyclinH/MAT1 (unknown origin) assessed as inactivation constant using 5-FAM YSPTSPSYSPTSPSYSPTSPSKKKK as substrate; assay type: protein-complex assay
HL-60 = experiment: Antiproliferative activity against human HL60 cells after 72 hrs by CellTiter-Glo assay; assay type: functional, cell-based; conditions: HL-60, 72 h
CDK7/Cyclin H/MNAT1 [11] = target: T4, CDK7/Cyclin H/MNAT1; experiment: Competitive irreversible inhibition of CDK7/cyclinH/MAT1 (unknown origin); assay type: protein-complex assay
[12] = target: T5, Cyclin-dependent kinase 2/cyclin E1 (Homo sapiens, UniProt P24941); experiment: Competitive reversible inhibition of CDK2/cyclin E (unknown origin); assay type: protein-complex assay
[13] = target: Cyclin-dependent kinase 5 (Homo sapiens, UniProt Q00535); experiment: Competitive reversible inhibition of CDK5 (unknown origin)
Chain of Cyclin-dependent kinase 5 (Q00535 whole entry): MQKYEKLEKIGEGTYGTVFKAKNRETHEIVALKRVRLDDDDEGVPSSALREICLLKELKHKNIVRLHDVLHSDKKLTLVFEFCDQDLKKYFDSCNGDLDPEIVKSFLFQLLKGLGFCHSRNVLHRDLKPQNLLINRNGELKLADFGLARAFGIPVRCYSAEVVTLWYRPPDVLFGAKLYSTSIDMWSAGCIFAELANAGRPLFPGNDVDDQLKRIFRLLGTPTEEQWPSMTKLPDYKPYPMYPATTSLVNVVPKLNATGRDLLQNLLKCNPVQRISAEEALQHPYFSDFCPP

[14] = target: Cyclin-dependent kinase 14/Cyclin-Y (Homo sapiens, UniProt O94921+Q8ND76); experiment: Competitive irreversible inhibition of CDK14/cyclin Y (unknown origin) in presence of Km ATP; assay type: protein-complex assay
CDK12/Cyclin K [15] = target: T6, CDK12/Cyclin K (Homo sapiens, UniProt Q9NYV4); experiment: Competitive irreversible inhibition of CDK12/cyclinK (unknown origin) in presence of Km ATP; assay type: protein-complex assay
T6 sequence (O75909 whole entry): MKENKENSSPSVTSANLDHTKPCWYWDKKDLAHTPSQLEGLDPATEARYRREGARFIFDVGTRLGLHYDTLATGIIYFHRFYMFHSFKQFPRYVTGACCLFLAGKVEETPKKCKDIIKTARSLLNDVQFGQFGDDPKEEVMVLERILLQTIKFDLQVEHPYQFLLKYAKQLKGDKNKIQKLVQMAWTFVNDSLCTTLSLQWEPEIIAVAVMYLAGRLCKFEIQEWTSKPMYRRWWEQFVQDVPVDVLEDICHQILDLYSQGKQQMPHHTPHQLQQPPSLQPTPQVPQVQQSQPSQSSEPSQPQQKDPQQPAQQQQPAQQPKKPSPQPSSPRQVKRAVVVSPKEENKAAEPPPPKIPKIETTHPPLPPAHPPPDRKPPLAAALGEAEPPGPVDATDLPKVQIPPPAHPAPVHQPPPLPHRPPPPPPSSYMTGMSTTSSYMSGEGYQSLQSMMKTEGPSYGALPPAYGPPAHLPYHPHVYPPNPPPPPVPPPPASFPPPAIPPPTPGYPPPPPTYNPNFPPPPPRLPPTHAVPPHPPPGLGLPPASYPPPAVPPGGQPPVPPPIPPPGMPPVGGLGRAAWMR
T6 sequence (Q9NYV4 whole entry): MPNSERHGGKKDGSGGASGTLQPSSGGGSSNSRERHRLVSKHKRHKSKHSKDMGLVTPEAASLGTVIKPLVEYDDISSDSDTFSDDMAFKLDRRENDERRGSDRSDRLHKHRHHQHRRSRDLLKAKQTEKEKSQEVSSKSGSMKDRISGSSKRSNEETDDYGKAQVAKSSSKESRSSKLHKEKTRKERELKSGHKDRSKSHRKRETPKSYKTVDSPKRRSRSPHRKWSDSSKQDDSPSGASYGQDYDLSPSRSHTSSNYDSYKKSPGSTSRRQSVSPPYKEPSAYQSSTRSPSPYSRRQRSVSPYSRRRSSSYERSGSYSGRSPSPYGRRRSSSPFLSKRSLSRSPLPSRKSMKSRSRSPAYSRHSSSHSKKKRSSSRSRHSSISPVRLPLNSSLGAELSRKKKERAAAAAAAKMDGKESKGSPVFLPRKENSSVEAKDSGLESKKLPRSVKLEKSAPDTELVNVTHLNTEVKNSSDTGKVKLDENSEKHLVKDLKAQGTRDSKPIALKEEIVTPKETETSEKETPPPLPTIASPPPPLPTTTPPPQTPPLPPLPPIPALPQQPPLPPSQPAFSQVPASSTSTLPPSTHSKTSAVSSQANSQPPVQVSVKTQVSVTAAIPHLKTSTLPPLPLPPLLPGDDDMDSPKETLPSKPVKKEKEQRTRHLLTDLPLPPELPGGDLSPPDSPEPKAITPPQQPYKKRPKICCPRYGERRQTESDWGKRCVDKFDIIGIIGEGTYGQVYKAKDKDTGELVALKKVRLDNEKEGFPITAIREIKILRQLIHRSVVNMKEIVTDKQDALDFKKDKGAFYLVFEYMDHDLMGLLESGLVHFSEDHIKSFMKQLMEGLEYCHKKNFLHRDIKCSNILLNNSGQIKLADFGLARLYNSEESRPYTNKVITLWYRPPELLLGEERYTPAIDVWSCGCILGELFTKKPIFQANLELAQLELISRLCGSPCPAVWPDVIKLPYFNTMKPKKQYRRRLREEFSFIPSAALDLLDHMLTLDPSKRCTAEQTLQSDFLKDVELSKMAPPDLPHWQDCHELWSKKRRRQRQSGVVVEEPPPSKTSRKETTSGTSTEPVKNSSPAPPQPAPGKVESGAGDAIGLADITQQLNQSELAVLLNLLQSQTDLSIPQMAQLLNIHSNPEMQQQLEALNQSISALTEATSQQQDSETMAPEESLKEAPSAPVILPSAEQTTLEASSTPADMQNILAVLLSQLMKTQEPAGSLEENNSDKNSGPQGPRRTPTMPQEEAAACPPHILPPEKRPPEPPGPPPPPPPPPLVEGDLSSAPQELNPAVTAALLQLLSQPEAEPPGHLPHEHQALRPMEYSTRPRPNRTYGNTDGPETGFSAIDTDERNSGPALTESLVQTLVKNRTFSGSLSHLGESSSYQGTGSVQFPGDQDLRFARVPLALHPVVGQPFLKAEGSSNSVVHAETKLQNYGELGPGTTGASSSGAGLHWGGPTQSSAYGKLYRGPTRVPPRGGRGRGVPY

[16] = target: Cyclin-dependent kinase 8 (Homo sapiens, UniProt P49336); experiment: Competitive reversible inhibition of CDK8 (unknown origin)
Chain of Cyclin-dependent kinase 8 (P49336 whole entry): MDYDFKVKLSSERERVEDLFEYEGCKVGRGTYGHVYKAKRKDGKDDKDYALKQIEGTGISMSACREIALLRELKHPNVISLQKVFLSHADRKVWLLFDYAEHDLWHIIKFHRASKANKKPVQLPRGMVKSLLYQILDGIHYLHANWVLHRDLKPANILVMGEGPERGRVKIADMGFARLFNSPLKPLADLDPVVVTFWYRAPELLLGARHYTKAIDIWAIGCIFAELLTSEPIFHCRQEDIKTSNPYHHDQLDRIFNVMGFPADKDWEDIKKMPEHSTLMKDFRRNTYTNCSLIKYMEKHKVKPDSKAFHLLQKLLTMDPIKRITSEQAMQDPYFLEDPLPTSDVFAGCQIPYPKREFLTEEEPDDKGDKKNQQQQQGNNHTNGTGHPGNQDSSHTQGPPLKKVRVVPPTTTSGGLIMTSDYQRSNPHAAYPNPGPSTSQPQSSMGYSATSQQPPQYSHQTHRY

[17] = target: T1, Cyclin-dependent kinase 2; experiment: Inhibition of CDK2 (unknown origin)
[18] = Antiproliferative activity against imatinib-resistant human K562R-1 cells; assay type: functional
K562 = experiment: Antiproliferative activity against wild type human K562 cells; assay type: functional, cell-based
[19] = Antiproliferative activity against imatinib-resistant human K562R-2 cells; assay type: functional
Hs 683 = experiment: Antiproliferative activity against human Hs683 cells; assay type: functional, cell-based
[20] = target: T5, Cyclin-dependent kinase 2/cyclin E1; experiment: Competitive irreversible inhibition of CDK2/cyclin E (unknown origin); assay type: protein-complex assay
CDK9/cyclin T1 [21] = target: T2, CDK9/cyclin T1; experiment: Competitive irreversible inhibition of CDK9/cyclin T (unknown origin); assay type: protein-complex assay
[22] = target: T1, Cyclin-dependent kinase 2; experiment: Inhibition of CDK2 (unknown origin) relative to control; conditions: concentration not given here
[23] = target: Cyclin-dependent kinase 1 (Homo sapiens) (UniProt P06493); experiment: Inhibition of CDK1 (unknown origin) relative to control; conditions: concentration not given here
[24] = target: T5, Cyclin-dependent kinase 2/cyclin E1; experiment: Inhibition of human CDK2/cyclin E; assay type: protein-complex assay
[25] = target: Serine/threonine-protein kinase Nek10 (Homo sapiens, UniProt Q6ZWH5); experiment: Binding affinity to NEK10 (unknown origin)
[26] = target: Receptor-type tyrosine-protein kinase FLT3 (Homo sapiens, UniProt P36888, D835V); experiment: Binding affinity to human FLT3 D835V mutant
[27] = target: NUAK family SNF1-like kinase 2 (Homo sapiens, UniProt Q9H093); experiment: Binding affinity to SNARK (unknown origin)
[28] = target: Receptor-type tyrosine-protein kinase FLT3 (Homo sapiens, UniProt P36888, ITD); experiment: Binding affinity to human FLT3 ITD mutant
[29] = target: Cyclin-dependent kinase 4/cyclin D1 (Homo sapiens, UniProt P11802); experiment: Inhibition of human CDK4/cyclinD1; assay type: protein-complex assay
CDK9/Cyclin-H = CDK9/Cyclin-H (Homo sapiens, UniProt P50750+P51946); experiment: Inhibition of CDK9/cyclin H (unknown origin); assay type: protein-complex assay
Chain of CDK9/Cyclin-H (P51946 whole entry): as the sequence (P51946 whole entry) above
Chain of CDK9/Cyclin-H (P50750 whole entry): as the sequence (P50750 whole entry) above

[30] = target: Cyclin-dependent kinase 6 (Homo sapiens, UniProt Q00534); experiment: Competitive reversible inhibition of CDK6 (unknown origin)
[31] = target: Cyclin-dependent kinase 4 (Homo sapiens, UniProt P11802); experiment: Competitive reversible inhibition of CDK4 (unknown origin)
MCF7 = experiment: Antiproliferative activity against human MCF7 cells; assay type: functional, cell-based
OVCAR-3 = experiment: Antiproliferative activity against human OVCAR3 cells; assay type: functional, cell-based
CDK7/Cyclin H/MNAT1 [32] = target: T4, CDK7/Cyclin H/MNAT1; experiment: Competitive irreversible inhibition of CDK7/cyclinH/MAT1 (unknown origin) in presence of 1 mM ATP; assay type: protein-complex assay
[33] = target: Cyclin-dependent kinase 13/Cyclin-K (Homo sapiens, UniProt Q14004)
CDK12/Cyclin K [34] = target: T6, CDK12/Cyclin K
HCT-116 = experiment: Anti-tumor activity in human HCT116 cells xenografted in in vivo animal model assessed tumor growth inhibition at 100 mg/kg, qd after 13 days relative to control; assay type: functional; conditions: HCT-116, 312 h, read-out: TGI

Work on `C=CS(=O)(=O)c1ccc(Nc2nc(OCC3CCCCC3)c3nc[nH]c3n2)cc1` yielded a Kinact [1] of 5 ×10³ /M/s, a K [2] of 0.55 ×10⁶ /M/s and a K [3] of 0.07 s⁻¹.
`CN(C)C/C=C/C(=O)Nc1ccc(C(=O)N[C@H]2CCC[C@@H](Nc3ncc(Cl)c(-c4c[nH]c5ccccc45)n3)C2)nc1` gave an IC50 (CDK9/cyclin T1 [4]) of 226 nM, a Ratio [5] of 0.05 µM⁻¹ s⁻¹ and an IC50 (CDK7/Cyclin H/MNAT1 [6]) of 23 nM. For the same compound, the Ki (CDK7/Cyclin H/MNAT1 [7]) was 62.5 nM, the clearance [8] was 29 mL/min/kg and the IC50 (CDK7/Cyclin H/MNAT1 [9]) was 205 nM. For the same compound, the Kinact [10] was 11.3 h⁻¹, the EC50 (HL-60) was 3 nM and the EC50 (CDK7/Cyclin H/MNAT1 [11]) was 4 nM.
For `CC[C@H](Nc1nc(NCc2cnc(C)cc2C)c2ncn(C(C)C)c2n1)[C@@H](C)O` [CYC-065], the IC50 [12] was 5 nM and the IC50 [13] was 23 nM.
With `CN(C)C/C=C/C(=O)Nc1cccc(S(=O)(=O)N2CCC(NC(=O)c3n[nH]cc3NC(=O)c3c(Cl)cc(Cl)cc3Cl)CC2)c1` the IC50 [14] was 88 nM.
Compound `CN(C)C/C=C/C(=O)Nc1ccc(C(=O)N[C@H]2CCC[C@@H](Nc3ncc(Cl)c(-c4c[nH]c5ccccc45)n3)C2)cc1` has an IC50 (CDK9/cyclin T1 [4]) of 627 nM, a Ratio [5] of 0.013 µM⁻¹ s⁻¹ and an IC50 (CDK7/Cyclin H/MNAT1 [6]) of 112 nM. It also gave a Ki (CDK7/Cyclin H/MNAT1 [7]) of 105 nM, a clearance [8] of 17 mL/min/kg and an IC50 (CDK7/Cyclin H/MNAT1 [9]) of 908 nM. The Kinact [10] was 4.8 h⁻¹, the IC50 (CDK12/Cyclin K [15]) was 312 nM and the EC50 (HL-60) was 13 nM. It also gave an EC50 (CDK7/Cyclin H/MNAT1 [11]) of 48 nM.
Compound `CC(C)c1cnn2c(NCc3ccccc3)cc(N[C@@H](CO)[C@H](O)CO)nc12` has an IC50 [16] of 90 nM.
In the case of `O=C1Nc2ccc([N+](=O)[O-])cc2/C1=C1/Nc2ccc(O)cc2/C1=N\O`, the IC50 [17] is reported as 2 to 60 nM, the IC50 [18] is reported as 856 nM and the IC50 (K562) is reported as 669 nM. The IC50 [19] was 711 nM.
With `CN1CCN(c2ccc(Nc3ncc4cc5n(c4n3)C3(CCCCC3)CNC5=O)nc2)CC1` [TRILACICLIB] the IC50 (Hs 683) was 30 nM.
`CN(C)C/C=C/C(=O)Nc1ccc(C(=O)N[C@@]2(C)CCC[C@@H](Nc3ncc(Cl)c(-c4c[nH]c5ccccc45)n3)C2)nc1` gave an IC50 (CDK9/cyclin T1 [4]) of 914 nM, an IC50 (CDK7/Cyclin H/MNAT1 [6]) of 84 nM and a Ki (CDK7/Cyclin H/MNAT1 [7]) of 17.4 nM. The clearance [8] was 6 mL/min/kg, the IC50 (CDK7/Cyclin H/MNAT1 [9]) was 590 nM and the IC50 (CDK12/Cyclin K [15]) was 20 nM. For the same compound, the EC50 (HL-60) was 8 nM and the EC50 (CDK7/Cyclin H/MNAT1 [11]) was 13 nM.
`CN(C)C/C=C/C(=O)Nc1ccc(C(=O)N2CCC[C@@H](Nc3ncc(Cl)c(-c4c[nH]c5ccccc45)n3)C2)cc1` gave an IC50 (CDK9/cyclin T1 [4]) of 834 nM.
Compound `C=CC(=O)Nc1cccc(Nc2cc(N3CCCC[C@H]3CCO)nc3c(CC)cnn23)c1` has an IC50 [20] of 932 nM and an IC50 (CDK9/cyclin T1 [21]) of 20 nM.
Work on `C=CC(=O)N1CCN(C(=O)OC)c2ccccc21` yielded an inhibition [22] of 5% and an inhibition [23] of -2%.
With `CC(C)N1CCN(c2ccc(Nc3ncc4cc5n(c4n3)C3(CCCCC3)CNC5=O)nc2)CC1` [LEROCICLIB] the EC50 [24] was < 100 nM, the Kd [25] was 0.2 nM and the Kd [26] was 22 nM. The Kd [27] was 0.7 nM, the Kd [28] was 6.5 nM and the EC50 [29] was < 100 nM. The IC50 (CDK9/Cyclin-H) was 280 nM.
`CC(C)c1cnn2c(NCc3ccccc3)cc(NCCCCCCN)nc12` gave an IC50 [13] of 3000 nM, an IC50 [30] of 47000 nM and an IC50 [31] of 33000 nM. The IC50 [16] was 4200 nM.
Work on `C[C@@]1(O)CCC[C@H]1n1c(=O)c(C(F)F)cc2cnc(NC3CCN(S(C)(=O)=O)CC3)nc21` [EBVACICLIB] yielded an IC50 (MCF7) of 48 nM and an IC50 (OVCAR-3) of 48 nM.
`C=CC(=O)N1CCN(C(=O)OC(C)(C)C)c2ccccc21` showed an inhibition [22] of 83% and an inhibition [23] of 2%.
Work on `C=CC(=O)Nc1ccc(C(=O)Nc2n[nH]c3c2CN(C(=O)N[C@H](CN(C)C)c2ccccc2)C3(C)C)cc1` yielded an IC50 (CDK7/Cyclin H/MNAT1 [32]) of 53 nM.
In the case of `CN(C)C/C=C/C(=O)Nc1ccc(C(=O)Nc2cccc(Nc3ncc(Cl)c(-c4c[nH]c5ccccc45)n3)c2)cc1`, the IC50 [33] is reported as 628 nM, the IC50 (CDK12/Cyclin K [34]) is reported as 893 nM and the clearance [8] is reported as 129 mL/min/kg. The IC50 (CDK12/Cyclin K [15]) was 371 nM and the EC50 (HL-60) was 38 nM.
With `CC(C)c1cnn2c(NCc3ccccc3)cc(NC[C@H]3CCNC[C@@H]3O)nc12` [CT-7001] the IC50 [13] was 9400 nM, the IC50 [30] was 34000 nM and the IC50 [31] was 49000 nM. For the same compound, the inhibition in vivo at 100 mg/kg (HCT-116) was 60% and the IC50 [16] was 1200 nM.
